Source: US8372967B2, “Compounds and methods for modulating expression of GCCR” (Isis Pharmaceuticals, Inc., priority 2006, dated 2013)
Strand notation (5' to 3'): a small letter for the sugar, then the base; units joined by * are phosphorothioate-linked, units joined directly phosphodiester-linked; [ ] holds rarer units or linkages, { } end groups; capitals alone tell only the bases. e = 2'-O-(2-methoxyethyl) (MOE); l = locked nucleic acid (LNA); [5mC] = 5-methylcytosine; d = 2'-deoxy (DNA)

Columns and labels:
monkey GCGR mRNA = test: Antisense inhibition of GCGR in primary monkey hepatocytes (Table 80); type: cell-based; settings: relative to untreated control cells
Method: Additional short antisense compounds targeted to a GCGR nucleic acid were tested for their effects on monkey GCGR mRNA in vitro. Cultured primary monkey hepatocytes were treated as described herein with 25, 50, 100 or 200 nM of short antisense compound. After the treatment period, RNA was isolated from the cells and GCGR mRNA levels were measured by quantitative real-time PCR, as described herein. GCGR mRNA levels were adjusted according to total RNA content as measured by RIBOGREEN®. Results are presented in Table 80 as percent reduction in GCGR mRNA, relative to untreated control cells.

PTEN mRNA = PTEN mRNA levels in liver, kidney and fat, Balb/c mice, single i.p. 8 μmol/kg (Table 48); type: in vivo, mouse; settings: 72 h, saline = 100
Excerpt: Each dose group consisted of four animals. Shown in Table 46 are the sequences and motifs of the PTEN antisense compounds used in this study. Bolded residues indicate 2′-O-methoxyethyl moieties (2′-MOE) and italicized residues indicate Methyleneoxy BNA nucleotides. Each antisense compound comprises phosphorothioate linkages throughout. In addition, the cytosine residues in the gap of ISIS 384073 and in the wings of ISIS 392056, ISIS 392057, ISIS 392061 and ISIS 392063 are replaced with 5-methylcytosines. Antisense compounds target published PTEN nucleic acids, including Genbank Accession No. U92437.1 (SEQ ID
Mice were sacrificed 72 hours following injection to determine serum transaminase levels (Table 47); liver and spleen weights (Table 47); and PTEN mRNA levels in liver, kidney and fat (Table 48), according to procedures described herein and well know to one of ordinary skill in the art.

GCGR mRNA = GCGR mRNA levels in liver and estimated ED50, C57/BL6 mice, single i.p. dose of MOE and methyleneoxy BNA gapmers (Tables 44, 45); type: in vivo, mouse; settings: liver
Method: Eight-week old male C57/BL6 mice (Jackson Laboratory, Bar Harbor, Me.) were administered a single dose of GCGR antisense compound by intraperitonel (i.p.) injection at a concentration of 10, 3.2, 1, and 0.32 μmol·kg. Each dose group consisted of four animals. Shown in Table 43 are the sequences, motifs and conjugates of the GCGR antisense compounds used in this study. Bolded residues indicate 2′-O-methoxyethyl (2′-MOE) modifications and the italicized residues indicate methyleneoxy (4′-CH2—O-2′) BNA modifications. All antisense compounds comprise phosphorothioate internucleoside linkages throughout and each cytosine is replaced with 5-methylcytosine. GCGR antisense compounds target published GCGR nucleic acids, including Genbank Accession No. BC031885.1 (SEQ ID NO: 7).
To determine whether the phenotypic changes shown above correlated with a decrease in GCGR mRNA, treated animals were evaluated for levels of target mRNA in liver by RT, real time PCR according to methods described herein. Table 44 show results from direct comparisons of the antisense compounds targeting GCGR nucleic acid for their effect on target expression. Results are expressed as percent of saline control.

## 327131 (antisense eA*eT*eG*dT*dT*dG*dG*d[5mC]*d[5mC]*dG*dT*eG*eG*eT) [compound 327131]
Monkey GCGR mRNA; 25 nM
  percent reduction in GCGR mRNA: 0%
Monkey GCGR mRNA; 50 nM
  percent reduction in GCGR mRNA: −8%
Monkey GCGR mRNA; 100 nM
  percent reduction in GCGR mRNA: −36%
Monkey GCGR mRNA; 200 nM
  percent reduction in GCGR mRNA: −36%

## 384073 (antisense lG*lC*lT*dA*dG*d[5mC]*d[5mC]*dT*d[5mC]*dT*dG*dG*dA*lT*lT*lT) [compound 384073]
PTEN mRNA
  % PTEN mRNA levels in Fat: 77%
  % PTEN mRNA levels in Kidney: 74%
  % PTEN mRNA levels in Liver: 24%

## 396145 (ATGGCTTCTCCATCATATCC; 5-10-5 MOE gapmer, chemistry not fully specified) [compound 396145]
GCGR mRNA; 3.2 μmol/kg single i.p.
  GCGR mRNA levels: 33% of saline control
GCGR mRNA; 10 μmol/kg single i.p.
  GCGR mRNA levels: 8% of saline control

## 396147 (CTTGGGCATGCTCGTCAGTC; 5-10-5 MOE gapmer, chemistry not fully specified) [compound 396147]
GCGR mRNA; 3.2 μmol/kg single i.p.
  GCGR mRNA levels: 68% of saline control
GCGR mRNA; 10 μmol/kg single i.p.
  GCGR mRNA levels: 28% of saline control
